Data on three compounds can be found in patent EP0084730A1, “Esters of penicillin derivatives with beta-lactamase inhibitors, their preparation and their use” (BEECHAM GROUP PLC, priority 1982, dated 1983).

Data set [1] can be described thus: Blood levels of the clavulanate after oral dosing in mice, determined by β-lactamase inhibition assay. The data set is classed as in vivo. The following applies: mouse. The text has this:
These compounds were adminstered in 10% dimethylformamide/90% olive oil. […]
(§1) An antibacterial assay was used to determine levels of benzyl penicillin in blood samples. A P-lactamase inhibition assay was employed to determine levels of the clavulanate in the samples.

The nature of data set [2]: Blood levels of benzyl penicillin after oral dosing in mice, determined by antibacterial assay. The following applies: mouse, in vivo, 60 mg/kg. As to the method: […] These compounds were adminstered in 10% dimethylformamide/90% olive oil. The dose was equivalent to approximately 62 mg/kg of benzyl penicillin and 38 mg/kg of the clavulanate.
as §1

A value given as a limit tells only on which side of the number the result lay.

For `COC/C=C1\O[C@@H]2CC(=O)N2[C@H]1C(=O)O` [Clavulanic acid methyl ether], in data set [1] (in vivo, 20 mg/kg), the concentration at 0.25 h was found to be 7500 ng/mL, the concentration at 0.5 h was 3850 ng/mL, the concentration at 1 h came out at 1500 ng/mL and the concentration at 2 h worked out at 200 ng/mL. For the same compound, in data set [1] (in vivo, 20 mg/kg, 1.5 h), the “Blood levels of clavulanic acid methyl ether” value was 450 ng/mL.

Take `CC1(C)S[C@@H]2[C@H](NC(=O)Cc3ccccc3)C(=O)N2[C@H]1C(=O)O` [benzyl penicillin]: in data set [2], the concentration at 0.25 h came to 1390 ng/mL, the concentration at 0.5 h came out at 1050 ng/mL, the concentration at 0.75 h amounted to 1250 ng/mL and the concentration at 1 h came to 620 ng/mL. Also, in data set [2], the concentration at 1.5 h was 550 ng/mL and the concentration at 2 h is 320 ng/mL. Also, the “Blood levels of benzyl penicillin” value in data set [2] (0.25 h) is 1390 ng/mL. For the same compound, the “Blood levels of benzyl penicillin” value in data set [2] (0.5 h) is 1050 ng/mL. For the same compound, the “Blood levels of benzyl penicillin” value in data set [2] (0.75 h) came to 1250 ng/mL. The “Blood levels of benzyl penicillin” value in data set [2] (1 h) was 620 ng/mL. Moreover, the “Blood levels of benzyl penicillin” value in data set [2] (1.5 h) is 550 ng/mL. Moreover, in data set [2] (2 h), the “Blood levels of benzyl penicillin” value was found to be 320 ng/mL.

`O=C(O)[C@H]1/C(=C/CO)O[C@@H]2CC(=O)N21` [clavulanic acid]: the concentration at 0.25 h in data set [1] (blood, mice, clavulanic acid alone at 20 mg/kg, 15' after administration, mean results from several experiments, read-out: Blood levels of clavulanic acid) was 5900 ng/mL. The concentration at 0.5 h in data set [1] (blood, mice, clavulanic acid alone at 20 mg/kg, 30' after administration, mean results from several experiments, read-out: Blood levels of clavulanic acid) came out at 2300 ng/mL. Also, the concentration at 0.75 h in data set [1] (blood, mice, clavulanic acid alone at 20 mg/kg, 45' after administration, mean results from several experiments) came out at 1040 ng/mL. Moreover, the concentration at 1 h in data set [1] (blood, mice, clavulanic acid alone at 20 mg/kg, 60' after administration, mean results from several experiments, read-out: Blood levels of clavulanic acid) was determined as 530 ng/mL. For the same compound, in data set [1] (blood, mice, clavulanic acid alone at 20 mg/kg, 90' after administration, mean results from several experiments), the concentration at 1.5 h turned out to be 340 ng/mL. Also, the concentration at 2 h in data set [1] (blood, mice, clavulanic acid alone at 20 mg/kg, 120' after administration, mean results from several experiments, read-out: Blood levels of clavulanic acid) is at most 300 ng/mL.
